The values below come from patent US20160213680A1, “COMPOSITIONS AND METHODS USING FLUMAZENIL WITH OPIOID ANALGESICS FOR TREATING PAIN AND/OR ADDICTION, AND WITH DIVERSION AND/OR OVERDOSE MITIGATION” (SOTERIAN PHARMACEUTICALS, LLC, priority 2015, published 2016).

“And” between values parts separate entries of the source, which are not always exact repeats. Equal values may be shown once. “Also recorded” adds a separate entry of the source.

The subject of series [1] is patients who had been taking methadone. As to the kind of experiment: Example 2: conversion of methadone patients to the sublingual tablet (withdrawal, VAS pain). Format: in vivo, human. The settings on record: patients withdrawing from methadone. The method, then: […]. These patients took an average of 9 days to convert before methadone withdrawal was completely eliminated.
Patients who had been taking 50 mg to 140 mg per day of methadone were first titrated down with Ultram (e.g., via 2 to 3 tablets of Ultram 50 mg administered every 6 hours) for four days. Following this titration period, the patients were given injections containing 0.3 mg buprenorphine and 60 mg torodol to see if further time was needed before the sublingual tablets comprising buprenorphine and flumazenil could be started without risk of precipitating withdrawal. […]. Stomach tightness, nausea, and restless legs were the most common complaints from these patients.

The conditions of series [2]: in vivo, cited from earlier work.
Series [3] concerns sedation associated with benzodiazepines (midazolam). In kind it is in vivo, human. The method, then:
Subjects were pretreated with about 10 mg flumazenil orally. After 30 minutes midazolam (a benzodiazepine) 0.3 mg was administered and repeated every 30 minutes until sedative effects were noticed by the subject or reported by the investigator. Oral flumazenil of about 10 mg was able to block midazolam for an average of 150 minutes.
This example study was repeated with about 30 mg flumazenil orally (2 subjects) and sublingually (3 subjects). Allowing the sublingual flumazenil treatment option was thought to avoid first pass hepatic metabolism and potentially increase Cmax (maximum [or peak] serum concentration), shorten Tmax (time at which the Cmax is observed) and is expected to increase the area under the curve for flumazenil in the serum. In this dose range study subjects were again pretreated with about 30 mg flumazenil orally or sublingually. After 30 minutes midazolam (Versed) 0.3 mg was administered and repeated every 30 minutes until sedative effects were noticed by the subject or reported by the investigator.

Series [4] can be described thus: Tablet pilot studies of flumazenil tolerability. In kind it is in vivo, human. Particulars: tablet formulations, compared with IV flumazenil history. The text has this: Note, several historical physiological ideas about IV flumazenil may be much different compared to the formulations of flumazenil used in the various pharmaceutical dosage units. […] When patients are currently prescribed opiates, such patients are instructed to avoid benzodiazepines and the pharmaceutical dosage units disclosed herein may make physicians more confident that such patients will remain compliant with that instruction.

On to `CCOC(=O)c1ncn2c1CN(C)C(=O)c1cc(F)ccc1-2` [flumazenil, ethyl 8-fluoro-5-methyl-6-oxo-5,6-dihydro-4H-benzo[f]imidazo[1,5-a][1,4]diazepine-3-carboxylate], for which the “effect of flumazenil on the pain and withdrawal relieving effect of buprenorphine” value in series [1] is recorded as “noticeably enhanced”. For the same molecule, the “oral and/or gastrointestinal bioavailability” value in series [2] (po) is on record as “very low”. Further, the elimination half-life in series [2] is 1.4 h. Besides, the “duration of blockade from Versed” value in series [3] (about 3 mg IV flumazenil) was determined as 60 min. Also, the “duration of midazolam blockade / protection from sedation (average)” value in series [3] (about 10 mg flumazenil orally, midazolam 0.3 mg every 30 minutes) came out at 150 min. Moreover, in series [3] (about 30 mg flumazenil orally or sublingually, all subjects), the “sedation at the 330 minute interval” value was “measurable (but reduced) sedation”. Moreover, in series [3] (about 30 mg flumazenil orally, the 2 subjects), the “duration of midazolam blockade, individual subjects” value is 240 min and 270 min. Moreover, the “time for flumazenil to clear the serum (average)” value in series [3] (human, in vivo, po) was “about 3 hours”. In addition, in series [4], the “anxiety, panic attacks, dysphoria, disorientation” value was “does not cause anxiety nor panic attacks; also recorded: no dysphoria nor disorientation”.

`Cc1ncc2n1-c1ccc(Cl)cc1C(c1ccccc1F)=NC2` [midazolam]: in series [3] (midazolam 0.3 mg IV), the “time to maximum sedation after IV midazolam dosing” value was found to be 5 min.
